What was measured:
Format in all cases: in vivo
UUO mice = test: UUO study: Sirius red staining, kidney fibrosis area
Protocol: Histopathological analysis: To visualize collagen deposition, kidney sections were stained using picro-Sirius red solution. For quantification of interstitial fibrosis area, bright field images in the corticomedullary region were captured using a digital camera at 200-fold magnification, and the positive areas in 5 fields/section were measured.

Sprague Dawley rats = test: 26 week rat toxicity study: tolerability, clinical signs; conditions: 6 g/kg/day oral gavage, replaced with 3 g/kg/day
Protocol: The test and control items were administered to the appropriate animals by once daily oral gavage 7 days a week for a minimum of 26 weeks. The volume for each animal was based on the most recent body weight measurements. The doses were given using a syringe with attached gavage cannula. The first day of dosing was designated as Day 1. The dosing formulations were removed from the refrigerator and stirred for at least 30 minutes before dosing. The dosing formulations were also stirred continuously during dosing.
Due to the onset of clinical signs, including hunched posture, erect fur and abnormal gait and body weight loss, animals 3206M, 3515F and 3703F were given a dosing holiday from Day 45 and remaining Group 3 animals were given a dosing holiday from Day 48. Animals will start dosing at the lower dose level (3000 mg/kg/day) from Day 64. The following tables illustrate the treatments (Table 22) and animal groupings (Table 23) that were used in the study.
Mortality/moribundity checks were made daily. […] Animals were not removed from the cage during observation, unless necessary for identification or confirmation of possible findings.
Post-dose observations were made regularly throughout the day. […] The onset, intensity, and duration of these signs were recorded; particular attention was paid to the animals during and for the first hour after dosing.

[1] = system: humanized sickle cell (SS) mice; test: Humanized SCD (SS) mice under normoxia, 6 weeks treatment; conditions: 1000 mg/Kg/d for 6 weeks
Protocol: Animals and design of the study: Experiments were performed on 4-5 months-old sex matched healthy control (Hba^tm1(HBA) Tow Hbb^tm3(HBG1, HBB) Tow) and SCD (Hba^tm1(HBA)Tow Hbb^tm2(HBG1.HBB*)Tow) mice. The study used 4-5 months-old mice. The sickle cell related organ damage is not so severe to generate confounding factors when the impact of H/R induced stress is evaluated. This is also corroborated by the observation of Kasztan M et al who show gender-related differences in kidney function of humanized SCD mice becoming significant after 24 weeks (6 months) of age. The size of the mouse groups was established based on studies with the same mouse model for SCD generated by us and other labs. Mice were randomly assigned to the different treatment groups and analysis. Healthy and SS mice were treated with ether vehicle (hydroxypropyl methyl cellulose, HPMC, 0.5%) or Epeleuton in HPMC 0.5% (1000 mg/kg/day) administrated by gavage for 6 weeks. […] When indicated, mice underwent a hypoxia/reoxygenation stress (H/R): 10 hours hypoxia (8% oxygen) followed by 3 hours reoxygenation (21% oxygen) to mimic acute vaso-occlusive crisis as previously described. Whole blood and organs were collected from each mouse under isoflurane anesthesia. Organs were immediately removed and divided into two portions which were either immediately frozen in liquid nitrogen or fixed in 10% formalin and embedded in paraffin for histology. Hematological parameters were evaluated with a Sysmex XN-1000 Hematology Analyzer and red cell morphology was evaluated as previously reported. Biochemical assays were performed using standard biochemical assays, as previously reported. Plasmatic Pentraxin 2 and CCL-2 and CXCL-2 were measured respectively using the Mouse Pentraxin 2/SAP Quantikine ELISA Kit and the next generation ELISA kit according to the manufacturer's instruction.
Immunoblot analysis: Packed red cells were lysed in ice-cold phosphate lysis buffer (5 mM Na2HPO4, pH 8.0, containing protease inhibitor cocktail tablets, 3 mM benzamidine final concentration, 1 mM Na3VO4 final concentration) and centrifuged 10 min at 4° C. at 12,000 g. Red cell membrane (ghost) and cytosol fractions were obtained as previously reported. Frozen lung, kidney and aorta from each studied group were homogenized and lysed with iced lyses buffer (150 mM NaCl, 25 mM bicine, 0.1% SDS, 2% Triton X-100, 1 mM EDTA, protease inhibitor cocktail tablets, 1 mM Na3VO4 final concentration) then centrifuged 30 min at 4° C. at 12,000 g. Specific antibodies used are: anti Phospho-Tyrosine (clone PY99 from SCBT, Santa Cruz, CA (dilution 1:3000, 75 μg loaded) and clone 4G10 from Merck KGaA, Darmstadt, Germany (dilution 1:1600, 75 μgr loaded)); anti Phospho (Ser536) NF-kB p65 (dilution 1:1000, 75 μg loaded) and anti NF-kB p65 (clone C22B4) (dilution 1:1000, 75 μgr loaded) from Cell Signaling Technology (Danvers, MA, USA); anti-NLRP3/NALP3 from Vinci-Biochem Srl, Vinci, Italy (dilution 1:1000, 75 μgr loaded); anti Endothelin-1 (ET-1) form AbCam, Cambridge, UK (dilution 1:1000, 75 μgr loaded); anti VCAM-1 (R and D Systems, Minneapolis, MN, USA (dilution 1:1000, 40 μgr loaded)); anti ICAM-1 (clone EP1442Y, dilution 1:1000, 75 μgr loaded, AbCam, Cambridge, UK); anti TXAS-1 (Cayman, Ann Arbor, MI, USA); anti Nrf2-phospho-S40 (Clone EP1809Y, dilution 1:1000, 75 μgr loaded, AbCam, Cambridge, UK); anti-Nrf2 (dilution 1:1000, 75 μgr loaded, AbCam, Cambridge, UK); anti Nqo1 from Santa Cruz Biotechnology, Inc, CA, USA (clone C-19; dilution 1:1000, 75 μgr/μl loaded); anti-heme oxygenase 1(HO-1) form SCBT (Santa Cruz, CA, USA (dilution 1:1000, 50 μgr loaded); E-selectin (H-300) (dilution 1:1000, 75 μgr loaded); anti GAPDH from SCBT (Santa Cruz, CA, USA (dilution 1:5000, 50 μgr loaded)); anti Actin from SCBT (Santa Cruz, CA, USA (clone 2A3, dilution 1:1000, 50 μgr/loaded)). […]

`CC/C=C\C[C@H](O)/C=C/C=C\C/C=C\C/C=C\CCCC(=O)OCC` [DS102, 15(S)-hydroxy-(5Z,8Z,11Z,13E,17Z)-eicosapentaenoic acid ethyl ester] was tested, and the “Sirius red-positive area (%)_Median” value (UUO mice; 50 mg/kg PO QD Day 0-13, Day 14, median) was 4.19 ± 3.33%, the “Sirius red-positive area (%)_Median” value (UUO mice; 500 mg/kg PO QD Day 0-13, Day 14, median) was 3.08 ± 1.16% and the “tolerability of the highest dose” value (Sprague Dawley rats) was “not well tolerated”. For the same compound, the “tolerability and body weight” value [1] was “well tolerated without major changes in body weight”, the ALT ([1]; normoxia) was “significant reduction” and the AST ([1]; normoxia) was “no change”. For the same compound, the CRP ([1]; normoxia) was “significant reduction”, the circulating neutrophils ([1]; normoxia) was “significant reduction” and the “expression of VCAM-1, ICAM1 and endothelin-1 (ET-1) in lungs, kidneys, livers” value ([1]; normoxia) was “significantly reduction”. For the same compound, the liver protein oxidation ([1]; normoxia) was “marked reduction”, the pentraxin-2 ([1]; normoxia) was “trend toward a reduction” and the “plasma CCL2/MCP1” value ([1]; normoxia) was “lower”. For the same compound, the BUN ([1]; normoxia, vs vehicle) was “no change”, the “activation of NF-kB in lungs, kidneys, and livers” value ([1]; normoxia, vs vehicle) was “significantly reduced” and the “expression of ICAM-1 and ET-1 in isolated aortas” value ([1]; normoxia, vs vehicle) was “significantly down-regulated”. The serum creatinine ([1]; normoxia, vs vehicle) was “trend toward a reduction” and the “hematocrit or reticulocyte counts” value ([1]; normoxic conditions) was “no significant changes”.
